Activity calls are given as the source filed them. The rule behind the calls is not given here.
Test system: Mycobacterium tuberculosis variant bovis
Test: Antitubercular activity against Mycobacterium bovis
Format: functional, organism-based

SMILES: O[C@@H]1[C@@H]2c3cc(Br)ccc3N[C@H](c3ccccc3)[C@@H]2C[C@@H]1O
- Activity: inactive

SMILES: CC(=O)N1c2ccccc2[C@@H]2[C@@H](C[C@@H]3O[C@H]23)[C@H]1c1ccccc1
- Activity: inactive

SMILES: O[C@@H]1[C@@H]2c3ccccc3N[C@H](c3ccccc3)[C@@H]2C[C@@H]1O
- Activity: inactive

SMILES: Clc1ccc([C@H]2Nc3ccccc3[C@H]3C=CC[C@H]32)cc1
- Activity: inactive

SMILES: Brc1ccc2c(c1)[C@H]1C=CC[C@H]1[C@@H](c1ccccc1)N2
- Activity: inactive

SMILES: Fc1ccc2c(c1)N[C@H](c1ccccc1)[C@@H]1CC=C[C@H]21
- Activity: inactive

SMILES: CC(=O)N1c2ccccc2[C@H]2C=CC[C@H]2[C@H]1c1cccc(Br)c1
- Activity: inactive

SMILES: CC(=O)N1c2ccccc2[C@H]2C=CC[C@H]2[C@H]1c1ccccc1C
- Activity: inactive

SMILES: C=CCO[C@H]1C(n2cc(-c3ccccc3)nn2)C[C@@H]2[C@H]1c1ccccc1N(C(C)=O)[C@@H]2c1ccccc1 (single isomer, unassigned)
- Activity: inactive

SMILES: O=[N+]([O-])c1ccc2c(c1)N[C@H](c1ccccc1)[C@@H]1CC=C[C@H]21
- Activity: inactive

SMILES: O[C@@H]1[C@@H]2c3ccccc3N[C@H](c3ccc(Cl)cc3)[C@@H]2C[C@@H]1O
- Activity: inactive

SMILES: CC(=O)N1c2ccc(Br)cc2[C@H]2C=CC[C@H]2[C@H]1c1ccccc1
- Activity: inactive

SMILES: O[C@@H]1[C@@H]2c3ccc(F)cc3N[C@H](c3ccccc3)[C@@H]2C[C@@H]1O
- Activity: inactive

SMILES: O=[N+]([O-])c1ccc2c(c1)N[C@H](c1ccccc1)[C@@H]1C[C@H](O)[C@H](O)[C@H]21
- Activity: inactive

SMILES: CC(=O)N1c2ccccc2[C@H]2C=CC[C@H]2[C@H]1c1ccccc1
- Activity: inactive

SMILES: C=CCO[C@@H]1[C@@H]2c3ccccc3N(C(C)=O)[C@H](c3ccccc3)[C@@H]2C[C@H]1N=[N+]=[N-]
- Activity: inactive

SMILES: CC(=O)N1c2ccccc2[C@@H]2[C@@H](C[C@@H]3O[C@H]23)[C@H]1c1cccc(Br)c1
- Activity: inactive

SMILES: CC(=O)N1c2ccccc2[C@H]2[C@@H](O)[C@@H](O)C[C@H]2[C@H]1c1ccccc1
- Activity: inactive

SMILES: O[C@@H]1[C@@H]2c3ccccc3N[C@H](c3cccc(Br)c3)[C@@H]2C[C@@H]1O
- Activity: inactive

SMILES: CC(=O)N1c2ccccc2[C@H]2[C@@H](O)[C@H](N=[N+]=[N-])C[C@H]2[C@H]1c1ccccc1
- Activity: inactive

SMILES: CC(=O)N1c2ccccc2[C@@H]2[C@@H](C[C@@H]3O[C@H]23)[C@H]1c1ccc(Cl)cc1
- Activity: inactive

SMILES: COC(=O)C[C@@H]1[C@H](C(=O)OC)c2ccccc2N(C(C)=O)[C@@H]1c1ccccc1
- Activity: inactive

SMILES: CC(=O)N1c2cc([N+](=O)[O-])ccc2[C@H]2[C@@H](O)[C@H](N=[N+]=[N-])C[C@H]2[C@H]1c1ccccc1
- Activity: inactive

SMILES: Cc1ccccc1[C@H]1Nc2ccccc2[C@H]2C=CC[C@H]21
- Activity: inactive

SMILES: C=CCO[C@@H]1[C@@H]2c3ccccc3N(C(C)=O)[C@H](c3cccc(Br)c3)[C@@H]2C[C@H]1N=[N+]=[N-]
- Activity: inactive

SMILES: CC(=O)N1c2ccccc2[C@H]2C=CC[C@H]2[C@H]1c1ccc(Cl)cc1
- Activity: inactive

SMILES: CC(=O)N1c2cc([N+](=O)[O-])ccc2[C@H]2C=CC[C@H]2[C@H]1c1ccccc1
- Activity: inactive

SMILES: Cc1ccccc1[C@H]1Nc2ccccc2[C@H]2[C@@H](O)[C@@H](O)C[C@H]21
- Activity: inactive

SMILES: C1=C[C@@H]2c3ccccc3N[C@H](c3ccccc3)[C@@H]2C1
- Activity: inactive

SMILES: CC(=O)N1c2ccccc2[C@H]2[C@@H](O)[C@H](N=[N+]=[N-])C[C@H]2[C@H]1c1ccc(Cl)cc1
- Activity: inactive

SMILES: CC(=O)N1c2cc([N+](=O)[O-])ccc2[C@@H]2[C@@H](C[C@@H]3O[C@H]23)[C@H]1c1ccccc1
- Activity: inactive

SMILES: CC(=O)N1c2ccccc2[C@H]2[C@@H](O)[C@H](N=[N+]=[N-])C[C@H]2[C@H]1c1cccc(Br)c1
- Activity: inactive

SMILES: C=CCO[C@@H]1[C@@H]2c3ccccc3N(C(C)=O)[C@H](c3ccc(Cl)cc3)[C@@H]2C[C@H]1N=[N+]=[N-]
- Activity: inactive

SMILES: Brc1cccc([C@H]2Nc3ccccc3[C@H]3C=CC[C@H]32)c1
- Activity: inactive

Reference: ChEMBL document CHEMBL4184140, “Expanding the tetrahydroquinoline pharmacophore” (Bioorg Med Chem Lett, 2017)
